For eight molecules, ED50, Activity and inhibition results are on record in ChEMBL document CHEMBL1157426, “Diazen-1-ium-1,2-diolated nitric oxide donor ester prodrugs of 1-(4-methanesulfonylphenyl)-5-aryl-1H-pyrazol-3-carboxylic acids: synthesis, nitric oxide release studies and anti-inflammatory activities” (Bioorg Med Chem, 2008).

The test system of one data set is Rattus norvegicus. Put plainly: Antiinflammatory activity in po dosed rat assessed as inhibition of carrageenan-induced paw edema after 3 hrs. The data set is classed as functional. To be noted: read-out: ID50 (the source's name).
A short description of data set [1]: Induction of nitric oxide release at pH 7.4 PBS after 1.5 hrs. The data set is classed as physicochemical. Conditions: buffer, pH 7.4, 1.5 h.
Another data set deals with Serum. Description: Induction of nitric oxide release in rat serum at pH 7.4 after 1.5 hrs. The class given is cell-free. Conditions: pH 7.4, 1.5 h.
For data set [2], the target named is T1, Prostaglandin G/H synthase 2 (Homo sapiens) (UniProt P35354).
T1 sequence (whole entry): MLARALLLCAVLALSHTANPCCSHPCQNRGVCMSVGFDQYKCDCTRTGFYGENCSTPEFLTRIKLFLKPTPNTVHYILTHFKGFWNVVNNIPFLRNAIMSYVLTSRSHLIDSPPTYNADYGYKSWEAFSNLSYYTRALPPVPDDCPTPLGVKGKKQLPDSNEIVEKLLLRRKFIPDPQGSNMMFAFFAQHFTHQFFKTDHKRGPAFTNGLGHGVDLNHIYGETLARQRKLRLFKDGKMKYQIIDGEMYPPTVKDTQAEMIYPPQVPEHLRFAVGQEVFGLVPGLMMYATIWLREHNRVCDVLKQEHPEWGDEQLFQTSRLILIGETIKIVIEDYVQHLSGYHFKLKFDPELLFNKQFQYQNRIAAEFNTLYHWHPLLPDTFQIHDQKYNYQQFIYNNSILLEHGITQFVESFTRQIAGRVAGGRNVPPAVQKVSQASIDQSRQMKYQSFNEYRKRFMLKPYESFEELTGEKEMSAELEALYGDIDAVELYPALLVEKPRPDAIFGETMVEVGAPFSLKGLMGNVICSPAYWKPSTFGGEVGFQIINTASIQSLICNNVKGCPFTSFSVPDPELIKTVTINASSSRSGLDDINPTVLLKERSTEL
To be noted: at 100 µM.
Description: Inhibition of COX2 at 100 uM

In data set [3] the target is Prostaglandin G/H synthase 1 (Homo sapiens) (UniProt P23219). Conditions: at 100 µM.
Prostaglandin G/H synthase 1 (Homo sapiens), sequence (P23219 whole entry): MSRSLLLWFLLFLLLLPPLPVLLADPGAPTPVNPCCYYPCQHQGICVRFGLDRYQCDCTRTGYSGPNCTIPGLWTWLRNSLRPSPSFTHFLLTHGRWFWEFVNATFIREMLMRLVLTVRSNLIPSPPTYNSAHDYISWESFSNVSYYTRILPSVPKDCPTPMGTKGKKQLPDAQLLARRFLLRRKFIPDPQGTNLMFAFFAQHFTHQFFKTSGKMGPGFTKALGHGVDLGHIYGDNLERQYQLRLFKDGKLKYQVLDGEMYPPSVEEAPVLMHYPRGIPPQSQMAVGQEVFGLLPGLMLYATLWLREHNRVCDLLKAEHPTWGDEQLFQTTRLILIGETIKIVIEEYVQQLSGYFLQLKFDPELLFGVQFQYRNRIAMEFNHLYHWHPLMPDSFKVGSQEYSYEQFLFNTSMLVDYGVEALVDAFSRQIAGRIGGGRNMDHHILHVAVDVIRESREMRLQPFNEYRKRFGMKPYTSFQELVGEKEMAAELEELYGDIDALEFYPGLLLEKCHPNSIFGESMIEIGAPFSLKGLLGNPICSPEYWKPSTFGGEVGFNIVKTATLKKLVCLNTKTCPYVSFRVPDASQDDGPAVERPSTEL
Description: Inhibition of COX1 at 100 uM

For `Cc1ccc(-c2cc(C(=O)O)nn2-c2ccc(S(C)(=O)=O)cc2)cc1`, the ED50 in the data set on Rattus norvegicus stood at 85.2 mg/kg.

With `CS(=O)(=O)c1ccc(-n2nc(C(=O)O)cc2-c2ccccc2)cc1`, in the data set on Rattus norvegicus, the ED50 turned out to be 104 mg/kg. On to `CC(=O)OCO/N=[N+](\[O-])N(C)CCOC(=O)c1cc(-c2ccc(C)cc2)n(-c2ccc(S(C)(=O)=O)cc2)n1`, for which the Activity amounted to 9.2% in data set [1] and 70.9% with Serum. Take `CS(=O)(=O)c1ccc(-n2nc(C(=O)O)cc2-c2ccc(F)cc2)cc1`: the ED50 in the data set on Rattus norvegicus was determined as 104 mg/kg. As for `CC(=O)OCO/N=[N+](\[O-])N(C)CCOC(=O)c1cc(-c2ccc(F)cc2)n(-c2ccc(S(C)(=O)=O)cc2)n1`, the Activity in data set [1] turned out to be 9.3%; in the data set with Serum, 73.6%. Turning to `CC(=O)OCO/N=[N+](\[O-])N(C)CCOC(=O)c1cc(-c2ccccc2)n(-c2ccc(S(C)(=O)=O)cc2)n1`, the Activity stood at 7.7% in data set [1] and 67.5% in the data set on Serum. Turning to `CCOC(=O)c1cc(-c2ccc(C)cc2)n(-c2ccc(S(N)(=O)=O)cc2)n1`, the inhibition in data set [2] stood at 43%; in data set [3], 66%.

As to `CN(CCO)/[N+]([O-])=N/[O-].[Na+]`, the Activity in data set [1] is on record as 84.5%; in the data set with Serum it was 85%.

What is called inhibition is the percentage by which the read-out fell short of the control. A lower inhibition goes with a weak effect.
